Measurements taken from patent US20120171133A1, “Modulation of Dynein in Skin” (AVON PRODUCTS, INC., priority 2010, published 2012).

Experiments:
[1] = tested on: mRNA for the heavy chain DYNC1H1 of cytoplasmic dynein; assay: Dynein modulation assay (Panomics Quantigene multiplex, branched DNA) in fibroblasts; assay type: cell-based, human; details: fibroblasts (F), 24 hours
Experimental: (§1) Normal human dermal fibroblasts or keratinocytes were cultured in 96-well tissue culture treated plates, containing appropriate culture medium. Stock solution of actives were made in an appropriate vehicle (water/Ethanol/Propylene glycol). Cells were treated with test material or respective vehicle control diluted in growth medium for 24 hours in a humidified 37° C. Incubator with 10% CO2. After incubation, growth medium from each plate was removed and 100 μL of lysis buffer was added to the wells and placed in 37° C. Incubator with 10% CO2 for 30 minutes. At the end of incubation, the cells are collected in freezer plates and placed in −80° C. freezer, until analysis. Changes in mRNA for Dynein after treatment were analyzed using Panomics Quantigene multiplex assay that employs a branched DNA technology, following manufacturer's instructions (Affymetrix, Calif.). Percent increase (up-regulation) or decrease (down-regulation) in mRNA for the heavy chain DYNC1H1 of cytoplasmic dynein was calculated by comparing the test results to the control. The percent up-regulation or down-regulation is converted to a scaled score as shown below in Table 3.

[2] = tested on: mRNA for the heavy chain DYNC1H1 of cytoplasmic dynein; assay: Dynein modulation assay (Panomics Quantigene multiplex, branched DNA) in keratinocytes; assay type: cell-based, human; details: for Effect (down-regulation scale) / Effect (up-regulation scale): keratinocytes (K), 24 hours
Experimental: as §1

## CCC=CCC=CCCO [3,6-Nonadienol]
[1]; Conc. 0.01%
  Effect (down-regulation scale): − (21-40)

## O=C(O)c1cc(Cl)ccc1O [5-Chlorosalicylic acid]
[2]; Conc. 0.1%
  Effect (down-regulation scale): −− (41-60)
[2]; keratinocytes, p=0.02
  reduction of mRNA for the heavy chain DYNC1H1 of cytoplasmic dynein: 45.03%

## CC1=C(CC/C(C)=C/COC[C@@H](O)[C@@H](O)[C@H](O)[C@H](O)CO)C(C)(C)C(C)CC1 (stereo partly drawn) [Chalmicrin, 1-O—[(E)-3-Methyl-5-(2,5,6,6-tetramethyl-1-cyclohexen-1-yl)-2-pentenyl]-D-mannitol]
[2]; Conc. 0.0001%
  Effect (up-regulation scale): ++++ (>81)

## CC(C)CN(Cc1ccc(OS(C)(=O)=O)cc1)S(=O)(=O)c1ccccc1 [Compound 1]
[1]; Conc. 0.00005%
  Effect (up-regulation scale): ++ (41-60)

## CCCCCCCC(=O)Nc1ccc(N2CCN(C(=O)CC(C)(C)C)CC2)cc1 [Compound 2]
[2]; Conc. 0.0005%
  Effect (up-regulation scale): ++ (41-60)

## CCCCc1ccc(C(=O)Nc2cccc(C3NC(=S)N(C)C(C)=C3C(=O)OCCOC)c2)cc1 (stereo not shown) [Compound 3]
[1]; Conc. 0.00005%
  Effect (up-regulation scale): ++ (41-60)

## CCOCCCNC(=O)c1coc(CN(CCCOCC)C(=O)Nc2ccccc2C)n1 [Compound 4]
[1]; Conc. 0.00005%
  Effect (up-regulation scale): ++ (41-60)

## CCOc1ccc(C(=O)CC(Sc2ccc(Cl)cc2)C(=O)O)cc1 (stereo not shown) [Compound 5]
[1]; Conc. 0.00001%
  Effect (up-regulation scale): ++ (41-60)

## CCOCCCNC(=O)c1coc(CN(CCCOCC)C(=O)c2cccc(Br)c2)n1 [Compound 6]
[2]; Conc. 0.0005%
  Effect (down-regulation scale): − (21-40)

## CCCCC(CC)C(=O)Nc1ccc(N2CCN(C(=O)C3CCCCC3)CC2)cc1 (stereo not shown) [Compound 7]
[2]; Conc. 0.00005%
  Effect (down-regulation scale): − (21-40)

## CCc1ccccc1NC(=O)N(Cc1ccc(OS(C)(=O)=O)cc1)CC(C)C [Compound 8]
[1]; Conc. 0.0005%
  Effect (down-regulation scale): − (21-40)

## CC/C=C\CCCCCO [cis-6-Nonenol]
[2]; Conc. 0.0001%
  Effect (down-regulation scale): − (21-40)
